Measured values reported in the supplement of paper PMC10307832.

Columns and labels:
Assay in all cases: relative viability (nuclei count vs DMSO), 5 days (fraction); higher = more cells survive
BGJ398 + Phenformin = compound: CCN1CCN(c2ccc(Nc3cc(N(C)C(=O)Nc4c(Cl)c(OC)cc(OC)c4Cl)ncn3)cc2)CC1 [BGJ398] + N=C(N)NC(=N)NCCc1ccccc1 [Phenformin] (partner 250 µM)
In short: (§1)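 Lung cancer cell lines were pin-tool dosed in 1536-well plates on the day after seeding, with either a lone drug or a fixed anchor-drug dose plus five library-drug doses (not always all listed) in √10 steps. Nuclei were counted on 4× images after 5 days. Relative viability is the ratio of treated-well to vehicle-well nuclei counts, with each value a median of duplicate plates.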

[1] = compound: C1=CC2=NC=CN=C2C=C1/C=C/3\C(=O)NC(=O)S3 + COc1cccc2cc(-c3nc([C@H]4CC[C@H](C(=O)O)CC4)n4ncnc(N)c34)[nH]c12 [OSI-027] (partner 0.5 µM)
In short: as §1

[2] = compound: C1=CC2=NC=CN=C2C=C1/C=C/3\C(=O)NC(=O)S3 + C[C@@H](Oc1cc(-c2cnn(C3CCNCC3)c2)cnc1N)c1c(Cl)ccc(F)c1Cl [Crizotinib] (partner 1 µM)
In short: as §1

BGJ398 + Pemetrexed = compound: CCN1CCN(c2ccc(Nc3cc(N(C)C(=O)Nc4c(Cl)c(OC)cc(OC)c4Cl)ncn3)cc2)CC1 [BGJ398] + Nc1nc2[nH]cc(CCc3ccc(C(=O)N[C@@H](CCC(=O)O)C(=O)O)cc3)c2c(=O)[nH]1 [Pemetrexed] (partner 0.2 µM)
In short: as §1

UMC-11
relative viability (BGJ398 + Phenformin; first compound 0.01 µM): 0.325
relative viability (BGJ398 + Phenformin; first compound 0.03162 µM): 0.344
relative viability (BGJ398 + Phenformin; first compound 0.1 µM): 0.391
relative viability (BGJ398 + Phenformin; first compound 0.3162 µM): 0.341
relative viability (BGJ398 + Phenformin; first compound 1 µM): 0.341
relative viability ([1]; first compound 0.02 µM): 0.56
relative viability ([1]; first compound 0.06325 µM): 0.527
relative viability ([1]; first compound 0.2 µM): 0.552
relative viability ([1]; first compound 0.6325 µM): 0.475
relative viability ([1]; first compound 2 µM): 0.439
relative viability ([2]; first compound 0.02 µM): 0.627
relative viability ([2]; first compound 0.06325 µM): 0.572
relative viability ([2]; first compound 0.2 µM): 0.557
relative viability ([2]; first compound 0.6325 µM): 0.603
relative viability ([2]; first compound 2 µM): 0.722
relative viability (BGJ398 + Pemetrexed; first compound 0.01 µM): 0.799
relative viability (BGJ398 + Pemetrexed; first compound 0.03162 µM): 0.747
relative viability (BGJ398 + Pemetrexed; first compound 0.1 µM): 0.854
relative viability (BGJ398 + Pemetrexed; first compound 0.3162 µM): 0.814
relative viability (BGJ398 + Pemetrexed; first compound 1 µM): 0.758
